According to patent publication US10058540B2, “2-amino-5,5-difluoro-6-(fluoromethyl)-6-phenyl-3,4,5,6-tetrahydropyridines as BACE1 inhibitors” (H. Lundbeck A/S, priority 2014, dated 2018):
Read-outs that look alike come from different tables or passages of the source.

How the values were obtained:
[1] = molecular target: T1, BACE1 (Homo sapiens (Human), UniProt P56817); test: BACE1 binding assay (SPA-based, radioligand); details: pH 4.5, Ki=IC50/(1+L/Kd)
Procedure: The binding assay was performed as SPA-based assay using a biotinylated form of human BACE1 recombinantly expressed and subsequently purified from Freestyle HEK293 cells. The binding assay was run in a 50 mM sodium acetate buffer, pH 4.5 containing 50 mM NaCl and 0.03% Tween-20 in white clear bottom 384 plates (Corning #3653). 10 nM (final concentration) radioligand ([^3H]-N-((1S,2R)-1-benzyl-3-cyclopropylamino-2-hydroxy-propyl)-5-(methanesulfonyl-methyl-amino)-N-((R)-1-phenyl-ethyl)-isophthalamide) (TRQ11569 purchased from GE Healthcare) was mixed with test compound at a given concentration, 6 nM (final concentration) human BACE1 and 25 μg Streptavidin coated PVT core SPA beads (RPNQ0007, GE Healthcare Life Sciences) in a total volume of 40 μl. Several concentrations of each test compound were tested in the assay for IC50 determination. The plates were incubated for one hour at room temperature and counted in a Wallac Trilux counter. Total and non-specific binding were determined using buffer and 1 μM (final concentration) of the high affinity BACE1 reference inhibitor (S)-6-[3-chloro-5-(5-prop-1-ynyl-pyridin-3-yl)-thiophen-2-yl]-2-imino-3,6-dimethyl-tetrahydro-pyrimidin-4-one, respectively. For each test compound, a IC50 value (the concentration mediating 50% inhibition of the specific binding of the radioligand) was determined from concentration-response curve and used to calculate the Ki from the equation Ki=IC50/(1+L/Kd), where L and Kd are the final concentration of the radioligand used in the assay and the dissociation constant of the radioligand, respectively. The Kd of the radioligand was determined from saturation binding experiments.

[2] = molecular target: T1, BACE1; test: BACE1 efficacy assay (FRET-based, commercial BACE1 kit); assay type: biochemical; details: 10 μM test compound
Procedure: The efficacy assay was performed as a FRET-based assay using a commercially available BACE1 kit (Life Technologies, P2985). 2 μl test compound at 10 μM (final concentration) and 15 μl BACE1 enzyme from the kit (final concentration 3 nM) were preincubated for 15 minutes at room temperature before addition of 15 μl of substrate from the kit (250 nM final concentration) and incubated for additional 90 minutes at room temperature. The assay plate was subsequently read in a Pherastar (Ex540/Em590). The enzyme activity observed in presence of test compound were normalized to the enzyme activity observed in presence of buffer and 10 μM (final concentration) of the high affinity BACE1 reference inhibitor (S)-6-[3-Chloro-5-(5-prop-1-ynyl-pyridin-3-yl)-thiophen-2-yl]-2-imino-3,6-dimethyl-tetra-hydropyrimidin-4-one, respectively. The efficacy of the test compounds was evaluated at 10 μM (final concentration) and defined as the percent inhibition of the enzyme activity using the equation % inhibition=100%−normalized enzyme activity in percent.

[3] = Bioanalysis of brain and plasma samples (exposure, UPLC-MS/MS); assay type: in vivo, rat; details: male, Sprague Dawley, po, 3 hours post dose; for Kp at 3 h: brain/plasma, rat, read-out: Brain/Plasma ratio; for concentration at 3 h: read-out: Exp
Procedure: Young adult Male Sprague Dawley rats of approximately 250 g weight were purchased from Charles River and received 0-30 mg/kg of vehicle (10% HP betaCD+1M MeSO4, pH 2.5) or test compounds (dissolved in vehicle) only by oral gavage (p.o). The compounds are dosed at a volume of […]. Cohorts of 5-10 animals were established for each treatment condition.
At T=180 minutes after initial dosing the animals were stunned and decapitated with a guillotine. Trunk-blood was sampled in EDTA coated tubes after decapitation of the animal. The blood was centrifuged at 2200 G at 4° C. for 15 minutes and the plasma was collected and frozen at −80° C. The blood was aliquoted for Aβ ELISA and DMPK analysis. Immediately following sacrifice, the brain was extracted and split into 2 halves. The right hemibrains were snap frozen on dry ice and stored at −80° C. The left half was dissected; with the front forebrain taken for Aβ ELISA and the remainder used for DMPK analysis. These samples were also snap frozen on dry ice and stored at −80° C. until use for analysis.
TC was determined in plasma and brain homogenate using UltraPerformance LC® (UPLC®) chromatography followed by tandem-MS (MS/MS) detection.
Brain homogenate was prepared by homogenizing the brain 1:4 (v/v) with water:2-propanol:DMSO (50:30:20 v/v/v) followed by centrifugation and collection of the supernatant. Calibration standards and QC samples were prepared using a Hamilton robot. 150 μL of ISTD in acetonitrile (1 ng/mL ISTD) was added to 25 μL of calibration standards, QC samples and test samples (plasma and brain homogenate) using a Biomek robot. After centrifugation (6200 g, 4° C., 20 min) 100 μL supernatant from each sample was transferred to a new plate and mixed with 100 μL water with 0.1% formic acid using a Biomek robot (method file InVivo transfer). After a quick centrifugation (6200 g, 4° C., 5 min) the samples were placed in the auto-sampler.
MS/MS detection was done with an Applied Biosystems Sciex API 4000 instrument in positive-ion electrospray ionisation mode. TC and ISTD were detected at a parent>daughter mass to charge ratio (m/z). Nitrogen was used for the nebulizer and collision gases. The peak area correlated linearly with the plasma and brain concentration of the analytes in the range of 1.00-1000 ng/mL plasma and 5.00-5000 ng/g brain (corrected for dilution). If the plasma/brain sample drug concentration was above 1000 ng/mL or 5000 ng/g, the sample was diluted appropriately in blank plasma/blank brain homogenate before analysis.
• Waters Acquity UPLC HSS C18 SB (pH 2-8) 1.8 μm, 2.1×30 mm. • Mobile phase A: 0.1% aq. formic acid or 0.1% aq. ammonium hydroxide • Mobile phase B: Acetonitrile with 0.1% aq. formic acid or 0.1% aq. ammonium hydroxide. • Weak wash: Methanol • Strong wash: Acetonitrile/Isopropanol/formic acid (50/50/2 v/v/v) • Flow: 0.6 mL/min • Run time: 3 min. • To waste: 0-0.5 min • Temperature: 40° C. Gradient: […]
Compounds 11 and 15 were administered at doses of 10 mg/kg p.o. and brain and plasma samples were collected at 3 hours post dose and the following exposures were measured as described above.

T1 sequence (P56817 46-501): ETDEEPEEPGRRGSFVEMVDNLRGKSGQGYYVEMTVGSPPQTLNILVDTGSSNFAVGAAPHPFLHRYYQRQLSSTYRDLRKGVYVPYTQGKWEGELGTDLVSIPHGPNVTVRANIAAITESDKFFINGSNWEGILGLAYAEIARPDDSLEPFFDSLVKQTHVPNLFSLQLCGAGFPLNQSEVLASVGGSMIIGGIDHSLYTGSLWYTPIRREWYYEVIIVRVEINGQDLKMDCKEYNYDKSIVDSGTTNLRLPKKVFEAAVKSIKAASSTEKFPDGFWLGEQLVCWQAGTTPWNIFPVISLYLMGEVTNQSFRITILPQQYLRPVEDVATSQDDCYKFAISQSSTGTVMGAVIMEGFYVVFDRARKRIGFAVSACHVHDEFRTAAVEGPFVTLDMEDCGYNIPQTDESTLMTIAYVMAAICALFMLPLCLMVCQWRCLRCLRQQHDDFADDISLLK

SMILES: COc1cnc(C(=O)Nc2cc(F)c(F)c([C@@]3(CF)N=C(N)CCC3(F)F)c2)cn1 [Compound 11, (S)-N-(3-(6-amino-3,3-difluoro-2-(fluoromethyl)-2,3,4,5-tetrahydropyridin-2-yl)-4,5-difluorophenyl)-5-methoxypyrazine-2-carboxamide]
- Ki [1]: 14 nM
- inhibition at 10 µM [2]: 103%
- Kp at 3 h ([3]; 10 mg/kg p.o.): 1.8
- Kp at 3 h ([3]; 30 mg/kg p.o.): 1.3
- concentration at 3 h ([3]; rat brain, 10 mg/kg p.o.): 1760 ng/g
- concentration at 3 h ([3]; rat brain, 30 mg/kg p.o.): 4210 ng/g
- concentration at 3 h ([3]; rat plasma, 10 mg/kg p.o.): 1120 ng/g
- concentration at 3 h ([3]; rat plasma, 30 mg/kg p.o.): 3290 ng/g
